The assay is described as follows: Organoleptic properties (taste profile) of the amides. The text has this:
More specifically, examples of the organoleptic properties for the dienalkylamides of our invention are as follows: […]

[1] abbreviates: Formula II compounds, at 10 ppm.

`CC(C)=CCC/C(C)=C\CNC(=O)C1CC1`: under “Formula II compounds”, the Taste profile result is “Salty, MSG, Umami, brothy, mouthfeel, sweetness”.

As for `CC(C)=CCC/C(C)=C/CNC(=O)C=C(C)C`, under setting [1], the Taste profile entry is listed as “Clean, weak umami effect at 10 ppm”.

With `CC(C)=CCC/C(C)=C/CNC(=O)C(C)C`, the Taste profile entry (Formula II compounds) is “Some salt enhancement, umami and strong MSG effect, sweet end profile”.

`CC(C)=CCC/C(C)=C/CNC(=O)C1CC1`: the Taste profile result (Formula II compounds) was “Salt, MSG, Umami, mouthfeel, lasting sweetness”.

With `CCCCC/C=C\CC/C=C/CNC(=O)C1CC1`, the Taste profile result (Formula I compounds) was “Oily, moderate umami”.

`CC(C)=CCC/C(C)=C\CNC(=O)C=C(C)C`: the Taste profile result under setting [1] was “Clean, weak umami effect at 10 ppm”.

As for `CC/C=C\CC/C=C(\C)CNC(C)=O`, the Taste profile result (Formula I compounds, at 10 ppm) is “Potent warming at 10 ppm”.

For the compound `C/C=C/C(=O)NC/C=C(\C)CCC=C(C)C`, the Taste profile entry (Formula II compounds) was “Moderate umami, salt like, lemon character”.

As for `CC(C)=CCC/C(C)=C\CNC(=O)C(C)C`, the Taste profile entry (Formula II compounds) is “Salt enhancement, MSG enhancement, Umami, brothy, sweet end profile”.

Take `C/C=C/C(=O)NC/C=C(/C)CCC=C(C)C`: the Taste profile entry (Formula II compounds) is listed as “Moderate umami, some saltiness”.

Turning to `CC/C=C\CC/C=C/CNC(=O)C1CC1`, the Taste profile entry (Formula I compounds) is listed as “Moderate Umami, off fish oily character”.
